Legend:
[1] = test system: mild to moderate facial acne vulgaris; test: double-blind, randomized clinical study: counting of facial acne lesions; type: in vivo, human; conditions: for patients displaying for the first time a reduction of ≧30% in the total counts of all acne lesions: topical once daily, VPA 3% gel, isotretinoin 0.05% gel; for mean reduction of the number of acne lesions: day 85 compared to baseline (day 1), topical monotherapy
Method: This study was carried out as a double-blind, randomized study. Under informed consent patients with mild to moderate facial acne vulgaris were enrolled in the study. The treatment period was 12 weeks.
(§1) VPA was provided as a clear off-white, semi-solid 3% gel (30 mg/ml VPA). After washing the face with a mild cleanser, the gel was applied daily to the clean and dry skin once daily.
As a comparator reference therapy the retinoid isotretinoin was provided as a 0.05% gel (0.5 mg isotretinoin/g).
• Assessment of the therapeutic efficacy compared to the baseline was evaluated separately by the investigator and by the patient according to a 7-point scale • Counting of lesions in the entire face • Investigator's overall assessment of improvement by means of a photo documentation.
• efficacy: change of total count of facial acne lesions from baseline to the end of week 12 (comparing day 1 to day 85, i.e., d1, d85)
• efficacy: time to reduction of acne lesions by >30% • count of acne lesions in the face after 2, 4, 8 and 12 weeks of treatment and its percentage and absolute change to baseline • safety/tolerability: safety laboratory parameters • clinical safety • patient's assessment of local tolerability
In the clinical study described in Example 1, also the time to reduction of the total counts by ≧30% of all acne lesions treated was investigated on each visit of the patients to the study hospital. Once the reduction had reached ≧30%, the actual at this point estimated reduction rate and the day of the visit was recorded.
In the clinical study described in Example 1, the counts of acne lesions treated were also assessed as counts of different types of lesions separately, i.e., recording the number of inflammatory lesions, and recording the number of non-inflammatory lesions separately.

[2] = VPA content in blood (serum) after topical application, HPLC; type: in vivo; conditions: human, read-out: serum level of VPA
Method: as §1
In parallel, an analysis of the VPA content in the blood of acne vulgaris patients treated topically with a 3% VPA containing medication was performed using HPLC based methodology, and the results are presented in FIG. 3. […] These serum concentration levels were measured after daily treatment with up to approx. 2.000 mg of a 3% VPA containing medication topically applied which refers to a total daily dose of VPA approx. 60 mg. If more or larger lesions would be treated, and therefore higher daily amounts of VPA would be topically applied, it is expected that accordingly higher serum levels may be obtained.

[3] = patients' assessment of local tolerability (5-point scale) and adverse events; type: in vivo, human; conditions: for assessments of local tolerability graded "acceptable" / assessments of local tolerability graded "poor" / assessments of local tolerability graded "well": percentage of all patient assessments over the study visits, topical
Method: • Safety laboratory parameters • Clinical safety examinations • Adverse events • Patient's assessment of local tolerability according to a 5-point scale.
In addition to the assessment of the therapeutical efficacy, the patients' assessments of local tolerability and the side effect profile was recorded in this clinical study described in example 1. FIG. 4 summarizes the patients' assessments of local tolerability which was recorded on each visit of the patients during the study period which took place on days 14, 24, 56 and 85. The patients assessed their perception of local tolerability according to the following grading scheme: […]

Row | SMILES | patients displaying for the first time a reduction of ≧30% in the total counts of all acne lesions ([1]; day 28) | patients displaying for the first time a reduction of ≧30% in the total counts of all acne lesions ([1]; day 85) | mean reduction of the number of acne lesions [1] | median counts of inflammatory lesions ([1]; end of treatment day 85, day 1 before treatment 30) [lesions] | median counts of non-inflammatory lesions ([1]; end of treatment day 85, day 1 before treatment 41) [lesions] | concentration at 56 day ([2]; day 56, daily topical up to approx. 2.000 mg of 3% VPA medication (approx. 60 mg VPA)) [ng/mL] | concentration at 85 day ([2]; day 85, daily topical up to approx. 2.000 mg of 3% VPA medication (approx. 60 mg VPA)) [ng/mL] | adverse events observed ([3]; patients treated topically, all resolved after end of study) | assessments of local tolerability graded "acceptable" [3] [%] | assessments of local tolerability graded "poor" [3] [%] | assessments of local tolerability graded "well" [3] [%]
1 | CCCC(CCC)C(=O)O [VPA, 2-propyl-pentanoic acid] | three | two | approx. 57% | 14.4 | 11.5 | ≤ 2440 | ≤ 1590 | mild to moderate administration site conditions | 23.8 | 4.8 | 61.9
2 | CC1=C(/C=C/C(C)=C/C=C/C(C)=C\C(=O)O)C(C)(C)CCC1 [isotretinoin] | three | two | approx. 54% | – | – | – | – | – | 40.5 | 11.9 | 38.1
